Source: patent publication US7244727B2, “Fused bicyclic nitrogen-containing heterocycles” (Japan Tobacco Inc., priority 2002, dated 2007)

Key:
human DGAT1 = target: T1, human DGAT1 (Homo sapiens, UniProt O75907); assay: DGAT Scintillation Proximity Assay (SPA) with membranes of insect cells expressing human flagtag DGAT1; assay type: biochemical; details: read-out: hDGAT1 IC50
T1 construct: made in house; host or cells: insect cells (sf9, sf21 or High Five) infected with baculovirus; total cell membranes
T1 sequence (O75907 1-488): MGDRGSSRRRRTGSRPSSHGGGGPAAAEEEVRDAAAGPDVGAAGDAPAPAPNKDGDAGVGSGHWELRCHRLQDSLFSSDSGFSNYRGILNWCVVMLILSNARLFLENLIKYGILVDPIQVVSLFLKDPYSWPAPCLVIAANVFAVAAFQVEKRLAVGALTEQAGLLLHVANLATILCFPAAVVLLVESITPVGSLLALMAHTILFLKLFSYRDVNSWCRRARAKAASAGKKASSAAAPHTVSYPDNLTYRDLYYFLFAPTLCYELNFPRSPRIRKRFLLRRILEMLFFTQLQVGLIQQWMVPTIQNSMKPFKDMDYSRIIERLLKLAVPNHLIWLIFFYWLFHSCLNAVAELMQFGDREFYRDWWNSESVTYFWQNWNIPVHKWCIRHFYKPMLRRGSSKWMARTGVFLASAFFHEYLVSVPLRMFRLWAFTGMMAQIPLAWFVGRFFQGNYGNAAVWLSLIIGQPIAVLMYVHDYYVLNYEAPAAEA
Method: In such an assay human DGAT1 is cloned from a human liver cDNA library. PCR is used to add a restriction site and flag epitope at the most 5′ end and a restriction site at the 3′ end of the sequence. Thereafter, human flagtag (FT) DGAT1 baculovirus may be generated using a Bac-to-Bac Baculovirus Expression System® (Invitrogen). Insect cells (e.g., sf9, sf2 1, or High Five) are infected for 24 to 72 h and collected by centrifugation. Cell pellets are resuspended in homogenization buffer and lysed using a homogenization device, such as a Microfluidizer. Total cell membranes are collected by ultracentrifugation at 45,000 rpm for 1 h.
A small aliquot (0.2 μg/well) of membrane is incubated with 10 μM compound or mercuric chloride (as positive control for inhibition) in the presence of enzyme substrate, dioleoyl glycerol (200 μM) in 384 well plates, final volume 50 gL per well. […] The reaction is stopped by adding Wheat Germ Agglutinin (WGA) SPA beads (0.2 mg) in mercuric chloride. Cell membranes are allowed to couple to the beads overnight. The signal can be measured using, for example, a Chemiluminescence Image Plate Reader (CLIPR) or TopCount device.

| SMILES | melting point | IC50 (human DGAT1) |
| --- | --- | --- |
| Nc1ncnc2c1N=C(c1ccc(Br)cc1)CO2 | > 200 °C | – |
| CC1Oc2ncnc(N)c2N=C1c1ccc(Br)cc1 (centres unmarked) | 222 to 224 °C | – |
| Cc1nc(N)c2c(n1)OCC(c1ccc(Br)cc1)=N2 | > 220 °C | – |
| Nc1ncnc2c1NC(c1ccc(Br)cc1)CO2 (centres unmarked) | > 200 °C | – |
| CC1(C)Oc2ncnc(N)c2N=C1c1ccc(Br)cc1 | 201 to 203 °C | – |
| Cc1nc(N)c2c(n1)OC(C)(C)C(c1ccc([C@H]3CC[C@H](CC(=O)O)CC3)cc1)=N2 | > 250 °C | – |
| CC1(C)Oc2ncnc(N)c2NC1c1ccc(Br)cc1 (centres unmarked) | > 220 °C | – |
| CC1(C)Oc2ncnc(N)c2N=C1c1ccc(Cl)cc1 | 210 to 211 °C | – |
| Cc1ccc(C2=Nc3c(N)ncnc3OC2(C)C)cc1 | 161 to 162 °C | – |
| CC1(C)Oc2ncnc(N)c2N=C1c1ccc(F)cc1 | 189 to 190 °C | – |
| CC1(C)Oc2ncnc(N)c2N=C1c1ccc(C2CCCCC2)cc1 | 186 to 187 °C | – |
| CC1(C)Oc2ncnc(N)c2N=C1c1ccc([C@H]2CC[C@H](CC(N)=O)CC2)cc1 | 224 to 226 °C | – |
| CC1(C)Oc2ncnc(N)c2N=C1c1ccc([C@H]2CC[C@H](C(=O)O)CC2)cc1 | > 250 °C | – |
| CC1(C)Oc2ncnc(N)c2N=C1c1ccc([C@H]2CC[C@H](CS(N)(=O)=O)CC2)cc1 | > 250 °C | – |
| COc1ccc(C2=Nc3c(N)ncnc3OC2(C)C)cc1 | 183 to 184 °C | – |
| CC1(C)Oc2ncnc(N)c2N=C1c1ccc(O)cc1 | 245 to 246 °C | – |
| CC1(C)Oc2ncnc(N)c2N=C1c1ccc(-c2ccccc2)cc1 | 218 to 219 °C | – |
| CC1(C)Oc2ncnc(N)c2N=C1c1ccc(C2CCC(=O)CC2)cc1 | > 240 °C | – |
| CCCc1ccc(C2=Nc3c(N)ncnc3OC2(C)C)cc1 | 185 to 186 °C | – |
| CC1(C)Oc2ncnc(N)c2N=C1c1ccc(C(C)(C)C)cc1 | 220 °C | – |
| CCc1ccc(C2=Nc3c(N)ncnc3OC2(C)C)cc1 | 135 to 136 °C | – |
| CC(C)c1ccc(C2=Nc3c(N)ncnc3OC2(C)C)cc1 | 175 to 179 °C | – |
| CCCCc1ccc(C2=Nc3c(N)ncnc3OC2(C)C)cc1 | 157 to 160 °C | – |
| CC1(C)Oc2ncnc(N)c2N=C1c1ccc([C@H]2CC[C@H](CCC(=O)O)CC2)cc1 | > 250 °C | – |

| SMILES | melting point | IC50 (human DGAT1) |
| --- | --- | --- |
| CC1(C)Oc2ncnc(N)c2N=C1c1ccc(C2CCC(F)(F)CC2)cc1 | 226 to 227 °C | – |
| CC1(C)Oc2ncnc(N)c2N=C1c1ccc(C2CCC(O)CC2)cc1 (centres unmarked) | 246 to 248 °C | – |
| CC1(C)Oc2ncnc(N)c2N=C1c1ccc(-c2ccc(CC(=O)O)cc2)cc1 | > 270 °C | – |
| CC1(C)Oc2ncnc(N)c2N=C1c1ccc(C(C)(C)C(=O)O)cc1 | > 250 °C | – |
| CC1(C)Oc2ncnc(N)c2N=C1c1ccc([C@H]2CC[C@H](Cc3nn[nH]n3)CC2)cc1 | > 250 °C | – |
| CC1(C)Oc2ncnc(N)c2N=C1c1ccccc1 | 189 to 190 °C | – |
| CC1(C)Oc2ncnc(N)c2N=C1c1ccc(N2CCCCC2)cc1 | 191 to 193 °C | – |
| CC1(C)Oc2ncnc(N)c2N=C1c1ccc(N2CCOCC2)cc1 | 214 to 219 °C | – |
| Nc1ncnc2c1N=C(c1ccc(F)cc1)CO2 [Example 1-2] | > 220 °C | > 100 nM |
| Nc1ncnc2c1N=C(c1ccc(Cl)cc1)CO2 [Example 1-3] | > 220 °C | > 100 nM |
| Cc1ccc(C2=Nc3c(N)ncnc3OC2)cc1 [Example 1-4] | 217 to 219 °C | > 100 nM |
| CCN(CC)c1ccc(C2=Nc3c(N)ncnc3OC2)cc1 [Example 1-6] | 206 °C (dec.) | > 100 nM |
| Nc1ncnc2c1N=C(c1cccc(Br)c1)CO2 [Example 1-7] | > 220 °C | > 100 nM |
| Nc1ncnc2c1N=C(c1ccc(C(F)(F)F)cc1)CO2 [Example 1-8] | > 220 °C | > 100 nM |
| CC(C)c1ccc(C2=Nc3c(N)ncnc3OC2)cc1 [Example 1-9] | 176 to 178 °C | > 100 nM |
| Nc1ncnc2c1N=C(c1ccc(-c3ccccc3)cc1)CO2 [Example 1-11] | > 250 °C | > 100 nM |
| COc1ccc(C2=Nc3c(N)ncnc3OC2)cc1 [Example 1-12] | 191 to 193 °C | > 100 nM |
| Nc1ncnc2c1N=C(c1ccc([N+](=O)[O-])cc1)CO2 [Example 1-13] | > 250 °C | > 100 nM |
| Nc1cccc2c1N=C(c1ccc(Br)cc1)CO2 [Example 1-15] | 75 to 77 °C | > 100 nM |
| Nc1ncnc2c1N=C(c1ccccn1)CO2 [Example 1-16] | 215 °C | > 100 nM |
| Nc1ncnc2c1N=C(c1cccnc1)CO2 [Example 1-17] | > 220 °C | > 100 nM |
| Nc1ncnc2c1N=C(c1ccncc1)CO2 [Example 1-18] | > 220 °C | > 100 nM |
| CCc1ccc(C2=Nc3c(N)ncnc3OC2)cc1 [Example 1-19] | 191 to 193 °C | > 100 nM |
| CCCc1ccc(C2=Nc3c(N)ncnc3OC2)cc1 [Example 1-20] | 189 to 192 °C | > 100 nM |

| SMILES | melting point | IC50 (human DGAT1) |
| --- | --- | --- |
| CCCCc1ccc(C2=Nc3c(N)ncnc3OC2)cc1 [Example 1-21] | 183 to 186 °C | > 100 nM |
| Nc1ncnc2c1N=C(C1CCCCC1)CO2 [Example 1-22] | 142 °C | > 100 nM |
| Nc1ncnc2c1N=C(c1ccc(OC(F)(F)F)cc1)CO2 [Example 1-23] | 209 to 212 °C | > 100 nM |
| Nc1ncnc2c1N=C(c1ccc(C3CCCCC3)cc1)CO2 [Example 1-25] | 219 to 221 °C | > 100 nM |
| Nc1nc(N)c2c(n1)OCC(c1ccc(Br)cc1)=N2 [Example 1-26] | > 220 °C | > 100 nM |
| Nc1ncnc2c1N=C(c1ccc(Cl)c(Cl)c1)CO2 [Example 1-27] | > 220 °C | > 100 nM |
| Nc1ncnc2c1N=C(c1ccc(Cl)cc1Cl)CO2 [Example 1-28] | 218 to 220 °C | > 100 nM |
| Nc1nc(O)nc2c1N=C(c1ccc(Br)cc1)CO2 [Example 1-29] | > 220 °C | > 100 nM |
| CN(C)c1nc(N)c2c(n1)OCC(c1ccc(Br)cc1)=N2 [Example 1-30] | > 220 °C | > 100 nM |
| Nc1ncnc2c1N=C(c1c(F)c(F)c(F)c(F)c1F)CO2 [Example 1-31] | 190 to 192 °C | > 100 nM |
| Cc1nc(N)c2c(n1)OCC(c1ccc(Br)cc1)N2 (centres unmarked) [Example 1-34] | 232 to 233 °C | > 100 nM |
| Cc1nc(N)c2c(n1)OC(C)(C)C(c1ccc([C@H]3CC[C@H](CN4CCCC(O)C4=O)CC3)cc1)=N2 (some centres unmarked) [Example 2-170] | 228 to 229 °C | – |
| Cc1nc(N)c2c(n1)OC(C)(C)C(c1ccc([C@H]3CC[C@H](CCc4noc(C(F)(F)F)n4)CC3)cc1)=N2 [Example 2-199] | 198 to 200 °C | – |
| Cc1nc(N)c2c(n1)OC(C)(C)C(c1ccc([C@H]3CC[C@H](Cc4n[nH]c(=O)[nH]4)CC3)c(Cl)c1)=N2 [Example 6-5] | > 300 °C | – |
| Cc1nc(N)c2c(n1)OC(C)(C)C(c1ccc([C@H]3CC[C@H](Cc4noc(=O)[nH]4)CC3)c(Cl)c1)=N2 [Example 6-6] | > 282 °C | – |
| Cc1nc(N)c2c(n1)OC(C)(C)C(c1ccc([C@H]3CC[C@H](CC(=O)O)CC3)c(O)c1)=N2 [Example 6-7] | > 280 °C | – |
| CC1(C)Oc2nc(C(F)(F)F)nc(N)c2N=C1c1ccc2c(c1)CCC21CCC(C(C)(C)C(=O)O)CC1 (centres unmarked) [Example 10-26] | – | 10 to 100 nM |
| CCC(C(=O)O)C1CCC(c2ccc(C3=Nc4c(N)nc(C)nc4OC3(C)C)cc2)CC1 (centres unmarked) [Example 10-27] | – | 10 to 100 nM |
| CCC(C(=O)O)C1CCC(c2ccc(C3=Nc4c(N)nc(C(F)(F)F)nc4OC3(C)C)cc2)CC1 (centres unmarked) [Example 10-28] | – | < 10 nM |
| Cc1nc(N)c2c(n1)OC(C)(C)C(c1ccc(CC3CCC(C(=O)O)CC3)cc1)=N2 (centres unmarked) [Example 10-29] | – | 10 to 100 nM |
| Cc1nc(N)c2c(n1)OC(C)(C)C(c1ccc([C@H]3CC[C@H](C(C)C(=O)O)CC3)cc1)=C2 (some centres unmarked) [Example 10-30] | – | 10 to 100 nM |
| CC(C(=O)O)[C@H]1CC[C@H](c2ccc(C3=Cc4c(N)ncnc4OC3(C)C)cc2)CC1 (some centres unmarked) [Example 10-31] | – | 10 to 100 nM |
| CCC(C(=O)O)C1CCC(c2ccc(C3=Nc4c(N)ncnc4OC3(C)C)cc2)CC1 (centres unmarked) [Example 10] | – | < 10 nM |
